Source: patent US8486996B2, “Aroylfuranes and aroylthiophenes” (Basilea Pharmaceutica AG, priority 2006, dated 2013)
pEC50, pIC50: −log10 of the molar value. Like-named read-outs stand apart in the source and are kept apart here.

Tests used:
Format in all cases: cell-based
tumor cells [1] = test: Hoechst 33342 nuclear staining (48 h read-out)
In short: (§1)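 Adherent cells pre-spread 24 h before dosing, suspension cells dosed at seeding; compounds at 0.001 μM-10 μM final, 48 h at culture conditions. Hoechst 33342 (2-5 μg/ml) added for 30 min, then fluorescence microscopy scoring of apoptotic nuclear fraction and apoptosis-specific morphology, reported as scores A-D.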

[2] = Hoechst 33342 nuclear staining (48 h read-out)
In short: as §1

tumor cells [3] = test: MTS proliferation assay (72 h read-out)
In short: (§2)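 Viability was read by MTS absorbance at 492 nm after 3 h with reagent. Before that, cells plated a day earlier at 1.5×10^3–10^4 per well had been incubated with test compound at final concentrations of 0.001–10 μM for 72 h; activity is given as category scores A–D.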

[4] = MTS proliferation assay (72 h read-out); settings: MRC5 cells
In short: as §2

tumor cells [5] = test: Mitochondrial membrane potential, JC-1 (read-out 48 h); settings: JC-1, 48 h
In short: (§3)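 Tumor cells were treated with test compounds (adherent cells after 24 h of attachment, suspension cells immediately), medium holding up to 5% DMSO. After 48 h, JC-1 (2-5 μg/ml in added medium) was applied for 30 min. Fluorescence microscopy (FITC/TRITC filters) scored the fraction of cells with dissipated mitochondrial membrane potential as categories A-D.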

[6] = as above; settings: PBL, JC-1, 48 h
In short: as §3

[7] = HeLa cells, read-out: Hoechst 33342 nuclear staining EC50, HeLa
[8] = Jily cells, read-out: Hoechst 33342 nuclear staining EC50, Jily
[9] = Jurkat cells, read-out: Hoechst 33342 nuclear staining EC50, Jurkat
[10] = MRC5 cells, read-out: Hoechst 33342 nuclear staining EC50, MRC5
[11] = PBL, read-out: Hoechst 33342 nuclear staining EC50, PBL
[12] = HT1080 cells, read-out: MTS proliferation assay IC50, HT1080
[13] = HeLa cells, read-out: MTS proliferation assay IC50, HeLa
[14] = Jily cells, read-out: MTS proliferation assay IC50, Jily
[15] = HeLa cells, read-out: Mitochondrial membrane potential (read-out 48 h) HeLa
[16] = Jily cells, read-out: Mitochondrial membrane potential (read-out 48 h) Jily
[17] = Jurkat cells, read-out: Mitochondrial membrane potential (read-out 48 h) Jurkat
[18] = MCF7 cells, read-out: Mitochondrial membrane potential (read-out 48 h) MCF7
[19] = Jurkat cells, read-out: MTS proliferation assay IC50, Jurkat

SMILES	pEC50 (tumor cells [1]; [7])	pEC50 (tumor cells [1]; [8])	pEC50 (tumor cells [1]; [9])	pEC50 [2, 11]	pIC50 (tumor cells [3]; [12])	pIC50 (tumor cells [3]; [13])	pIC50 (tumor cells [3]; [14])	pEC50 (tumor cells [5]; [15])	pEC50 (tumor cells [5]; [16])	pEC50 (tumor cells [5]; [17])	pEC50 (tumor cells [5]; [18])	pEC50 [6]	pIC50 (tumor cells [3]; [19])	pEC50 [2, 10]	pIC50 [4]
CCOc1ccc(F)cc1C(=O)c1cc2cc(OCOC)ccc2o1 [Example 69]	6.00 to 7.00	6.00 to 7.00	6.00 to 7.00	< 6.00	6.00 to 7.00	6.00 to 7.00	6.00 to 7.00	< 6.00	6.00 to 7.00	6.00 to 7.00	< 6.00	< 6.00	–	< 6.00	6.00 to 7.00
CCOc1ccc(F)cc1C(=O)c1cc2cc(OCCOC)ccc2o1 [Example 70]	6.00 to 7.00	6.00 to 7.00	6.00 to 7.00	< 6.00	6.00 to 7.00	6.00 to 7.00	6.00 to 7.00	< 6.00	6.00 to 7.00	6.00 to 7.00	< 6.00	< 6.00	–	6.00 to 7.00	6.00 to 7.00
CCOc1ccc(F)cc1C(=O)c1cc2cc(OCCN(C)C)ccc2o1 [Example 71]	< 6.00	< 6.00	< 6.00	< 6.00	< 6.00	< 6.00	< 6.00	< 6.00	< 6.00	< 6.00	< 6.00	< 6.00	–	< 6.00	< 6.00
CCOc1ccc(F)cc1C(=O)c1cc2cc(OC(=O)N(C)C)ccc2o1 [Example 72]	< 6.00	6.00 to 7.00	6.00 to 7.00	< 6.00	6.00 to 7.00	6.00 to 7.00	6.00 to 7.00	< 6.00	6.00 to 7.00	6.00 to 7.00	< 6.00	< 6.00	–	< 6.00	6.00 to 7.00
CCOc1ccc(F)cc1C(=O)c1cc2cc(Oc3ccccn3)ccc2o1 [Example 73]	6.00 to 7.00	6.00 to 7.00	6.00 to 7.00	< 6.00	6.00 to 7.00	6.00 to 7.00	6.00 to 7.00	6.00 to 7.00	6.00 to 7.00	6.00 to 7.00	< 6.00	< 6.00	–	6.00 to 7.00	6.00 to 7.00
CCOc1ccc(F)cc1C(=O)c1cc2cc(CN(CC)CC)ccc2o1 [Example 74]	< 6.00	< 6.00	< 6.00	< 6.00	< 6.00	< 6.00	< 6.00	< 6.00	< 6.00	< 6.00	< 6.00	< 6.00	–	< 6.00	< 6.00
CCNc1ncccc1C(=O)c1oc2ccc(Cl)cc2c1N [Example 76]	< 6.00	< 6.00	< 6.00	< 6.00	< 6.00	< 6.00	< 6.00	< 6.00	< 6.00	< 6.00	< 6.00	< 6.00	–	< 6.00	< 6.00

The next lines start with results.

pEC50 (tumor cells [1]; [7])	pEC50 (tumor cells [1]; [8])	pEC50 (tumor cells [1]; [9])	pEC50 [2, 11]	pIC50 (tumor cells [3]; [12])	pIC50 (tumor cells [3]; [13])	pIC50 (tumor cells [3]; [14])	pEC50 (tumor cells [5]; [15])	pEC50 (tumor cells [5]; [16])	pEC50 (tumor cells [5]; [17])	pEC50 (tumor cells [5]; [18])	pEC50 [6]	pIC50 (tumor cells [3]; [19])	SMILES	pEC50 [2, 10]	pIC50 [4]
< 6.00	6.00 to 7.00	6.00 to 7.00	< 6.00	< 6.00	< 6.00	6.00 to 7.00	< 6.00	6.00 to 7.00	6.00 to 7.00	< 6.00	< 6.00	–	CN(C)c1ncccc1C(=O)c1oc2ccc(Cl)cc2c1N [Example 77]	< 6.00	< 6.00
< 6.00	< 6.00	6.00 to 7.00	< 6.00	6.00 to 7.00	6.00 to 7.00	6.00 to 7.00	< 6.00	6.00 to 7.00	6.00 to 7.00	< 6.00	< 6.00	6.00 to 7.00	Nc1c(C(=O)c2cccnc2N2CCCC2)oc2ccc(Cl)cc12 [Example 79]	< 6.00	< 6.00
6.00 to 7.00	6.00 to 7.00	6.00 to 7.00	< 6.00	7.00 to 8.00	6.00 to 7.00	6.00 to 7.00	< 6.00	6.00 to 7.00	7.00 to 8.00	< 6.00	< 6.00	7.00 to 8.00	CCN(CC)c1ncccc1C(=O)c1oc2ccc(Cl)cc2c1N [Example 81]	< 6.00	6.00 to 7.00
6.00 to 7.00	6.00 to 7.00	7.00 to 8.00	< 6.00	7.00 to 8.00	6.00 to 7.00	7.00 to 8.00	6.00 to 7.00	6.00 to 7.00	7.00 to 8.00	6.00 to 7.00	< 6.00	7.00 to 8.00	CC1CN(c2ncccc2C(=O)c2oc3ccc(Cl)cc3c2N)CC(C)O1 (stereo not shown) [Example 83]	6.00 to 7.00	7.00 to 8.00
< 6.00	< 6.00	< 6.00	< 6.00	< 6.00	< 6.00	< 6.00	< 6.00	< 6.00	< 6.00	< 6.00	< 6.00	< 6.00	Nc1c(C(=O)c2cccnc2N2CCCNCC2)oc2ccc(Cl)cc12 [Example 84]	< 6.00	< 6.00
< 6.00	6.00 to 7.00	6.00 to 7.00	< 6.00	< 6.00	< 6.00	6.00 to 7.00	< 6.00	6.00 to 7.00	6.00 to 7.00	< 6.00	< 6.00	6.00 to 7.00	CN1CCN(c2ncccc2C(=O)c2oc3ccc(Cl)cc3c2N)CC1 [Example 85]	< 6.00	< 6.00
< 6.00	< 6.00	< 6.00	< 6.00	< 6.00	< 6.00	6.00 to 7.00	< 6.00	< 6.00	< 6.00	< 6.00	< 6.00	6.00 to 7.00	Nc1c(C(=O)c2cccnc2N2CCC(O)CC2)oc2ccc(Cl)cc12 [Example 86]	< 6.00	< 6.00
6.00 to 7.00	6.00 to 7.00	6.00 to 7.00	< 6.00	7.00 to 8.00	7.00 to 8.00	7.00 to 8.00	6.00 to 7.00	6.00 to 7.00	6.00 to 7.00	6.00 to 7.00	< 6.00	> 8.00	COc1ccc2oc(C(=O)c3cccnc3N3CCCC(C)C3)cc2c1 (stereo not shown) [Example 87]	6.00 to 7.00	7.00 to 8.00
6.00 to 7.00	6.00 to 7.00	6.00 to 7.00	< 6.00	> 8.00	7.00 to 8.00	> 8.00	7.00 to 8.00	7.00 to 8.00	7.00 to 8.00	7.00 to 8.00	< 6.00	> 8.00	COc1ccc2oc(C(=O)c3cccnc3N3CC=CCC3)cc2c1 [Example 88]	6.00 to 7.00	> 8.00
